Laboratory results as given in PubChem BioAssay (NCI).
Where “and” joins values, the source holds several entries; their conditions need not be identical. Identical values can stand only once.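 1) Cells in 96-well plates. 2) Compound, 48 h, 5 concentrations. 3) Linear interpolation between surrounding doses. 4) Unreached endpoint = highest concentration. GI50 = concentration required for 50% inhibition of growth. TGI: total growth inhibition.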

Key:
Assay in all cases: inhibition of tumour cell growth, NCI panel, 48 h
ACHN renal = tested on: ACHN renal
CCRF-CEM leukemia = tested on: CCRF-CEM leukemia
HCC-2998 colon = tested on: HCC-2998 colon
HT29 colon = tested on: HT29 colon
MDA-MB-231 breast = tested on: MDA-MB-231 breast
MOLT-4 leukemia = tested on: MOLT-4 leukemia
RPMI-8226 leukemia = tested on: RPMI-8226 leukemia
SF-268 CNS = tested on: SF-268 CNS
SK-OV-3 ovarian = tested on: SK-OV-3 ovarian
SW-620 colon = tested on: SW-620 colon

SMILES	GI50 (ACHN renal)	TGI (ACHN renal)	GI50 (CCRF-CEM leukemia)	TGI (CCRF-CEM leukemia)	GI50 (HCC-2998 colon)	TGI (HCC-2998 colon)	GI50 (HT29 colon)	TGI (HT29 colon)	GI50 (MDA-MB-231 breast)	TGI (MDA-MB-231 breast)	GI50 (MOLT-4 leukemia)	TGI (MOLT-4 leukemia)	GI50 (RPMI-8226 leukemia)	TGI (RPMI-8226 leukemia)	GI50 (SF-268 CNS)	TGI (SF-268 CNS)	GI50 (SK-OV-3 ovarian)	TGI (SK-OV-3 ovarian)	GI50 (SW-620 colon)	TGI (SW-620 colon)
CCc1ccc2c(c1)N(CCO)C1=C(C(=O)OC1)C2c1cccc(Cl)c1 (centres undefined)	1.24 µM	31.6 µM	0.739 µM	32 µM	1.35 µM	9.25 µM	0.345 µM	11.1 µM	1.66 µM	15.3 µM	1.78 µM	48.5 µM	3.38 µM	52.6 µM	0.975 µM	17.2 µM	0.663 µM	10.7 µM	0.416 µM	21.7 µM
C=CN(C)S(C)(=O)=O	> 100 µM	> 100 µM	> 100 µM	> 100 µM	> 100 µM	> 100 µM	> 100 µM	> 100 µM	> 100 µM	> 100 µM	> 100 µM	> 100 µM	> 100 µM	> 100 µM	> 100 µM	> 100 µM	> 100 µM	> 100 µM	> 100 µM	> 100 µM
CNC(=O)Oc1cc(C)c(/C=C/c2cncc(C(=O)NC)c2)c(C)c1	> 25 µM	> 25 µM	24.8 µM	> 25 µM	> 25 µM	> 25 µM	> 25 µM	> 25 µM	> 25 µM	> 25 µM	> 25 µM	> 25 µM	> 25 µM	> 25 µM	> 25 µM	> 25 µM	> 25 µM	> 25 µM	> 25 µM	> 25 µM
CCS(=O)(=O)Nc1cccc(Nc2c3cccc(C)c3nc3c(C)cccc23)c1OC	0.326 µM	16.5 µM	0.264 µM	> 100 µM	2.99 µM	> 71.1 µM	1.93 µM	10.5 µM	5.2 µM	41.4 µM	0.166 µM	4.23 µM	0.573 µM	12.5 µM	0.98 µM	> 56 µM	1.61 µM	29.7 µM	0.979 µM	> 100 µM
O=c1oc2ccc(-n3c(=O)c4ccccc4c4ccccc4c3=O)cc2c2ccccc12		> 100 µM		> 100 µM		> 100 µM		> 100 µM		> 100 µM		> 100 µM		> 100 µM		> 100 µM		> 100 µM		> 100 µM
O=C1c2ccccc2-c2c1c1c(O)cccc1n2-c1ccccc1	> 100 µM	> 100 µM	45.3 µM	> 100 µM	> 100 µM	> 100 µM	> 100 µM	> 100 µM	> 100 µM	> 100 µM	> 100 µM	> 100 µM	0.0318 µM	93.8 µM	> 100 µM	> 100 µM	> 100 µM	> 100 µM	> 100 µM	> 100 µM
CCOC(=O)C(C)(C)C(O)C(C)C (centres undefined)		> 100 µM		> 100 µM		> 100 µM		> 100 µM		> 100 µM		> 100 µM		> 100 µM		> 100 µM		> 100 µM		> 100 µM
O=C(/C(=C/c1ccc([N+](=O)[O-])cc1)SCc1ccc(F)cc1)c1ccc(Cl)cc1	1.96 µM	4.1 µM	3.17 µM	> 100 µM	5.11 µM	19 µM	2.38 µM	6.2 µM	4.37 µM	23 µM	3.54 µM	> 100 µM	1.92 µM	6.36 µM	9.44 µM	33.5 µM	37.1 µM	> 100 µM	2.03 µM	4.78 µM
COc1cc(-c2ncn(/C=C\C(=O)OC(C)C)n2)cc(C(F)(F)F)c1	0.0605 µM and 0.0657 µM	12.9 µM and 13 µM	0.0362 µM and 0.0446 µM	36.1 µM and 12.5 µM	0.102 µM and 0.659 µM	1.41 µM and 3.82 µM	0.0474 µM and 0.0896 µM	12.3 µM and 3.01 µM	0.065 µM and 0.0398 µM	4.81 µM and 7.12 µM	0.0302 µM and 0.0282 µM		0.036 µM and 0.0286 µM	> 36.1 µM and 4.66 µM	0.0493 µM and 0.0487 µM	8 µM and 3.58 µM	0.357 µM and 0.179 µM	16.9 µM and 15.1 µM	0.0368 µM and 0.0441 µM	6.58 µM and 5.38 µM
COc1ccc(OC)c(-c2cc(=O)c3c(OC)c(OC)c(OC)c(OC)c3o2)c1		71.3 µM		> 100 µM		92.1 µM		> 100 µM		> 100 µM		63.2 µM		76 µM		> 100 µM		98.7 µM		> 100 µM
CCc1cc2c(cc1N1CCC(N3CCOCC3)CC1)C(C)(C)c1[nH]c3cc(C#N)ccc3c1C2=O	1.92 µM and 1.54 µM and 1.41 µM	4.54 µM and 3.35 µM and 4.67 µM	0.745 µM and 0.826 µM and 1.54 µM	> 100 µM	4.33 µM and 3.73 µM	> 43.7 µM and 17.8 µM and > 10 µM	0.758 µM and 0.853 µM and 1.51 µM	2.54 µM and 3.42 µM and > 10 µM	1.53 µM and 1.71 µM and 2.11 µM	5.21 µM and 4.65 µM and 6.37 µM	1.57 µM and 0.973 µM and 1.38 µM	> 100 µM and 14.7 µM and > 10 µM	0.549 µM and 0.415 µM and 0.497 µM	8.9 µM and > 10 µM	1.57 µM and 1.54 µM and 1.92 µM	4.02 µM and 3.97 µM and 5.47 µM	1.64 µM and 1.87 µM and 2.84 µM	3.4 µM and 3.72 µM and 8.64 µM	0.924 µM and 1.26 µM and 1.08 µM	> 21.8 µM and 22 µM and > 10 µM
COc1cccc2c1c(C1=C(c3cn(C)c4ccccc34)C(=O)NC1=O)cn2C	> 25 µM	> 25 µM	> 25 µM	> 25 µM	> 25 µM	> 25 µM	> 25 µM	> 25 µM	> 25 µM	> 25 µM	> 25 µM	> 25 µM	> 25 µM	> 25 µM	> 25 µM	> 25 µM	> 25 µM	> 25 µM	> 25 µM	> 25 µM
COc1ccc(-c2c(-c3cc(OC)c(OC)c(OC)c3)noc2N)cc1	< 0.0141 µM	43.8 µM	0.0307 µM	> 100 µM	0.0197 µM	25.1 µM	< 0.0144 µM	0.796 µM	0.06 µM	90.1 µM	0.0312 µM	10.4 µM	0.0474 µM	5.96 µM	< 0.0181 µM	16.3 µM	< 0.011 µM	16.5 µM	< 0.01 µM	> 100 µM
O=C(Nc1nc2ccc(F)cc2s1)c1cccnc1Nc1ccc(Cl)cc1	3.08 µM	> 100 µM	1.54 µM	> 100 µM	2.73 µM	> 100 µM	3.1 µM	> 100 µM	1.88 µM	5 µM	2.47 µM	> 27 µM	1.24 µM	7.47 µM	3.68 µM	> 100 µM	2.49 µM	> 26.5 µM	3.04 µM	> 100 µM
